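In this assay, cells in 96-well plates receive the compound at five concentrations for 48 hours. Endpoints are linearly interpolated between the surrounding concentrations. TGI is the concentration that stops growth completely.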
What was measured:
Assay in all cases: NCI-60 cell line screen, 48 h
NCI-H522 lung = system: NCI-H522 lung
SN12C renal = system: SN12C renal
SF-268 CNS = system: SF-268 CNS
OVCAR-5 ovarian = system: OVCAR-5 ovarian
NCI-H226 lung = system: NCI-H226 lung
TK-10 renal = system: TK-10 renal
786-0 renal = system: 786-0 renal
DU-145 prostate = system: DU-145 prostate
T-47D breast = system: T-47D breast
NCI-H23 lung = system: NCI-H23 lung
HOP-62 NSCLC = system: HOP-62 NSCLC
MDA-MB-231 breast = system: MDA-MB-231 breast
U251 CNS = system: U251 CNS
SK-MEL-28 melanoma = system: SK-MEL-28 melanoma
HT29 colon = system: HT29 colon
RPMI-8226 leukemia = system: RPMI-8226 leukemia
CCRF-CEM leukemia = system: CCRF-CEM leukemia
LOX IMVI melanoma = system: LOX IMVI melanoma
SNB-19 CNS = system: SNB-19 CNS
PC-3 prostate = system: PC-3 prostate
UO-31 renal = system: UO-31 renal
MDA-MB-435 = system: MDA-MB-435
SW-620 colon = system: SW-620 colon
M14 melanoma = system: M14 melanoma
SK-MEL-2 melanoma = system: SK-MEL-2 melanoma
A549 NSCLC = system: A549 NSCLC
MCF7 breast = system: MCF7 breast
IGROV1 ovarian = system: IGROV1 ovarian
EKVX NSCLC = system: EKVX NSCLC
SK-MEL-5 melanoma = system: SK-MEL-5 melanoma
OVCAR-3 ovarian = system: OVCAR-3 ovarian
MDA-N = system: MDA-N
SF-295 CNS = system: SF-295 CNS
BT-549 breast = system: BT-549 breast
SK-OV-3 ovarian = system: SK-OV-3 ovarian
CAKI-1 renal = system: CAKI-1 renal
HCC-2998 colon = system: HCC-2998 colon
HCT-15 colon = system: HCT-15 colon
HS 578T breast = system: HS 578T breast
COLO 205 colon = system: COLO 205 colon
HOP-92 NSCLC = system: HOP-92 NSCLC
OVCAR-8 ovarian = system: OVCAR-8 ovarian
HL-60(TB) leukemia = system: HL-60(TB) leukemia
KM12 colon = system: KM12 colon
UACC-257 melanoma = system: UACC-257 melanoma
UACC-62 melanoma = system: UACC-62 melanoma
OVCAR-4 ovarian = system: OVCAR-4 ovarian
ACHN renal = system: ACHN renal
NCI-H460 lung = system: NCI-H460 lung
NCI/ADR-RES ovarian = system: NCI/ADR-RES ovarian
HCT-116 colon = system: HCT-116 colon
MALME-3M melanoma = system: MALME-3M melanoma
K-562 leukemia = system: K-562 leukemia
RXF 393 renal = system: RXF 393 renal
A498 renal = system: A498 renal
SF-539 CNS = system: SF-539 CNS
MOLT-4 leukemia = system: MOLT-4 leukemia
SNB-75 CNS = system: SNB-75 CNS

**Q.** Which results are given for `CC(C(=O)c1ccncc1)c1ccccn1` (stereo not given)?
**A.** TGI (NCI-H522 lung): > 100 µM; TGI (SN12C renal): > 100 µM; TGI (SF-268 CNS): > 100 µM; TGI (OVCAR-5 ovarian): > 100 µM; TGI (NCI-H226 lung): > 100 µM; TGI (TK-10 renal): > 100 µM; TGI (786-0 renal): > 100 µM; TGI (DU-145 prostate): > 100 µM; TGI (T-47D breast): > 100 µM; TGI (NCI-H23 lung): > 100 µM; TGI (HOP-62 NSCLC): > 100 µM; TGI (MDA-MB-231 breast): > 100 µM; TGI (U251 CNS): > 100 µM; TGI (SK-MEL-28 melanoma): > 100 µM; TGI (HT29 colon): > 100 µM; TGI (RPMI-8226 leukemia): > 100 µM; TGI (CCRF-CEM leukemia): > 100 µM; TGI (LOX IMVI melanoma): > 100 µM; TGI (SNB-19 CNS): > 100 µM; TGI (PC-3 prostate): > 100 µM; TGI (UO-31 renal): > 100 µM; TGI (MDA-MB-435): > 100 µM; TGI (SW-620 colon): > 100 µM; TGI (M14 melanoma): > 100 µM; TGI (SK-MEL-2 melanoma): > 100 µM; TGI (A549 NSCLC): > 100 µM; TGI (MCF7 breast): > 100 µM; TGI (IGROV1 ovarian): > 100 µM; TGI (EKVX NSCLC): > 100 µM; TGI (SK-MEL-5 melanoma): > 100 µM; TGI (OVCAR-3 ovarian): > 100 µM; TGI (MDA-N): > 100 µM; TGI (SF-295 CNS): > 100 µM; TGI (BT-549 breast): > 100 µM; TGI (SK-OV-3 ovarian): > 100 µM; TGI (CAKI-1 renal): > 100 µM; TGI (HCC-2998 colon): > 100 µM; TGI (HCT-15 colon): > 100 µM; TGI (HS 578T breast): > 100 µM; TGI (COLO 205 colon): > 100 µM; TGI (HOP-92 NSCLC): > 100 µM; TGI (OVCAR-8 ovarian): > 100 µM; TGI (HL-60(TB) leukemia): > 100 µM; TGI (KM12 colon): > 100 µM; TGI (UACC-257 melanoma): > 100 µM; TGI (UACC-62 melanoma): > 100 µM; TGI (OVCAR-4 ovarian): > 100 µM; TGI (ACHN renal): > 100 µM; TGI (NCI-H460 lung): > 100 µM; TGI (NCI/ADR-RES ovarian): > 100 µM; TGI (HCT-116 colon): > 100 µM; TGI (MALME-3M melanoma): > 100 µM; TGI (K-562 leukemia): > 100 µM; TGI (RXF 393 renal): > 100 µM; TGI (A498 renal): > 100 µM

**Q.** How did the TGI (NCI-H522 lung) turn out when `COc1ccc2c(c1OC)C(C(Cl)(Cl)Cl)N1CCc3cc4c(cc3C1=C2)OCO4` (stereo not given) was run?
**A.** The TGI was 35.1 µM.

**Q.** What about the TGI (SN12C renal) of the same compound?
**A.** The TGI was over 100 µM.

**Q.** And the TGI (SF-268 CNS)?
**A.** The TGI was 91.1 µM.

**Q.** And the TGI (OVCAR-5 ovarian)?
**A.** The TGI was over 100 µM.

**Q.** And the TGI (NCI-H226 lung)?
**A.** The TGI was 70.1 µM.

**Q.** And the TGI (TK-10 renal)?
**A.** The TGI was over 100 µM.

**Q.** And the TGI (786-0 renal)?
**A.** Its TGI is 55.5 µM.

**Q.** And the TGI (DU-145 prostate)?
**A.** The TGI was 84.7 µM.

**Q.** And the TGI (T-47D breast)?
**A.** The TGI was over 100 µM.

**Q.** And the TGI (NCI-H23 lung)?
**A.** Its TGI is over 100 µM.

**Q.** And the TGI (MDA-MB-231 breast)?
**A.** The TGI was over 100 µM.

**Q.** What about the TGI (U251 CNS) of the same compound?
**A.** Its TGI is 43.1 µM.

**Q.** What about the TGI (SK-MEL-28 melanoma) of the same compound?
**A.** Its TGI is 27.8 µM.

**Q.** What about the TGI (HT29 colon) of the same compound?
**A.** Its TGI is 68.4 µM.

**Q.** What about the TGI (RPMI-8226 leukemia) of the same compound?
**A.** Its TGI is 11.3 µM.

**Q.** What about the TGI (CCRF-CEM leukemia) of the same compound?
**A.** The TGI was 62.2 µM.

**Q.** What about the TGI (LOX IMVI melanoma) of the same compound?
**A.** Its TGI is over 100 µM.

**Q.** What about the TGI (SNB-19 CNS) of the same compound?
**A.** Its TGI is over 100 µM.

**Q.** And the TGI (PC-3 prostate)?
**A.** The TGI was over 100 µM.

**Q.** And the TGI (SF-539 CNS)?
**A.** Its TGI is over 100 µM.

**Q.** And the TGI (UO-31 renal)?
**A.** Its TGI is over 100 µM.

**Q.** What about the TGI (MDA-MB-435) of the same compound?
**A.** The TGI was 27 µM.

**Q.** And the TGI (SW-620 colon)?
**A.** The TGI was over 100 µM.

**Q.** What about the TGI (M14 melanoma) of the same compound?
**A.** The TGI was over 100 µM.

**Q.** And the TGI (SK-MEL-2 melanoma)?
**A.** The TGI was 39.4 µM.

**Q.** What about the TGI (A549 NSCLC) of the same compound?
**A.** Its TGI is over 100 µM.

**Q.** What about the TGI (MCF7 breast) of the same compound?
**A.** Its TGI is over 100 µM.

**Q.** And the TGI (IGROV1 ovarian)?
**A.** The TGI was 98.2 µM.

**Q.** What about the TGI (EKVX NSCLC) of the same compound?
**A.** The TGI was over 100 µM.

**Q.** And the TGI (SK-MEL-5 melanoma)?
**A.** The TGI was 15.4 µM.

**Q.** And the TGI (OVCAR-3 ovarian)?
**A.** Its TGI is 65.8 µM.

**Q.** What about the TGI (MDA-N) of the same compound?
**A.** The TGI was 41 µM.

**Q.** And the TGI (SF-295 CNS)?
**A.** The TGI was over 100 µM.

**Q.** And the TGI (BT-549 breast)?
**A.** Its TGI is 8.63 µM.

**Q.** What about the TGI (SK-OV-3 ovarian) of the same compound?
**A.** The TGI was 85.9 µM.

**Q.** And the TGI (CAKI-1 renal)?
**A.** The TGI was over 100 µM.

**Q.** And the TGI (HCC-2998 colon)?
**A.** The TGI was 29.5 µM.

**Q.** What about the TGI (HCT-15 colon) of the same compound?
**A.** The TGI was over 100 µM.

**Q.** And the TGI (HS 578T breast)?
**A.** Its TGI is over 100 µM.

**Q.** What about the TGI (COLO 205 colon) of the same compound?
**A.** The TGI was 20.8 µM.

**Q.** And the TGI (HOP-92 NSCLC)?
**A.** Its TGI is 84.7 µM.

**Q.** And the TGI (OVCAR-8 ovarian)?
**A.** Its TGI is over 100 µM.

**Q.** What about the TGI (MOLT-4 leukemia) of the same compound?
**A.** The TGI was 80.9 µM.

**Q.** And the TGI (HL-60(TB) leukemia)?
**A.** The TGI was 45.2 µM.

**Q.** What about the TGI (KM12 colon) of the same compound?
**A.** The TGI was 20.3 µM.

**Q.** What about the TGI (UACC-257 melanoma) of the same compound?
**A.** The TGI was 62.9 µM.

**Q.** What about the TGI (UACC-62 melanoma) of the same compound?
**A.** Its TGI is 30.5 µM.

**Q.** What about the TGI (SNB-75 CNS) of the same compound?
**A.** The TGI was over 100 µM.

**Q.** And the TGI (OVCAR-4 ovarian)?
**A.** The TGI was 69 µM.

**Q.** And the TGI (ACHN renal)?
**A.** The TGI was 65.1 µM.

**Q.** What about the TGI (NCI-H460 lung) of the same compound?
**A.** The TGI was 55.3 µM.

**Q.** What about the TGI (NCI/ADR-RES ovarian) of the same compound?
**A.** The TGI was over 100 µM.

**Q.** What about the TGI (HCT-116 colon) of the same compound?
**A.** The TGI was 27.9 µM.

**Q.** What about the TGI (MALME-3M melanoma) of the same compound?
**A.** The TGI was 37.3 µM.

**Q.** And the TGI (A498 renal)?
**A.** The TGI was over 100 µM.

Reference: PubChem BioAssay (NCI)
